Assay results: PMC11062894, “Protein-based bandpass filters for controlling cellular signaling with chemical inputs” (Nature Chemical Biology, 2023)
Where “and” joins values, the source holds several entries; their conditions need not be identical. Identical values can stand only once.

System: GEMS receptors with CBPvene (Bcl2–LD3 and Bcl2high variants), STAT3-driven SEAP in HEK293T cells
Test: GEMS SEAP reporter assay, CBPvene (Bcl2high, LD3-v and Bcl2-v variants) with venetoclax
Format: cell-based
Conditions: for SEAP, replicate values: Supplementary Figure 8e
[1] = SuppFigure 8b, LD3, venetoclax 10 nM
[2] = SuppFigure 8b, LD3, venetoclax 31.6 nM
[3] = SuppFigure 8b, LD3, venetoclax 100 nM
[4] = SuppFigure 8b, LD3, venetoclax 316 nM
[5] = SuppFigure 8b, LD3, venetoclax 1000 nM
[6] = SuppFigure 8b, LD3, venetoclax 3160 nM
[7] = SuppFigure 8b, LD3, venetoclax 10000 nM
[8] = SuppFigure 8b, LD3v1, venetoclax 1 nM
[9] = SuppFigure 8b, LD3v1, venetoclax 3.16 nM
[10] = SuppFigure 8b, LD3v1, venetoclax 10 nM
[11] = SuppFigure 8b, LD3v1, venetoclax 31.6 nM
[12] = SuppFigure 8b, LD3v1, venetoclax 100 nM
[13] = SuppFigure 8b, LD3v1, venetoclax 316 nM
[14] = SuppFigure 8b, LD3v1, venetoclax 1000 nM
[15] = SuppFigure 8b, LD3v1, venetoclax 3160 nM
[16] = SuppFigure 8b, LD3v1, venetoclax 10000 nM
[17] = SuppFigure 8b, LD3v2, venetoclax 1 nM
[18] = SuppFigure 8b, LD3v2, venetoclax 3.16 nM
[19] = SuppFigure 8b, LD3v2, venetoclax 10 nM
[20] = SuppFigure 8b, LD3v2, venetoclax 31.6 nM
[21] = SuppFigure 8b, LD3v2, venetoclax 100 nM
[22] = SuppFigure 8b, LD3v2, venetoclax 316 nM
[23] = SuppFigure 8b, LD3v2, venetoclax 1000 nM
[24] = SuppFigure 8b, LD3v2, venetoclax 3160 nM
[25] = SuppFigure 8b, LD3v2, venetoclax 10000 nM
[26] = SuppFigure 8b, LD3v3, venetoclax 1 nM
[27] = SuppFigure 8b, LD3v3, venetoclax 3.16 nM
[28] = SuppFigure 8b, LD3v3, venetoclax 10 nM
[29] = SuppFigure 8b, LD3v3, venetoclax 31.6 nM
[30] = SuppFigure 8b, LD3v3, venetoclax 100 nM
[31] = SuppFigure 8b, LD3v3, venetoclax 316 nM
[32] = SuppFigure 8b, LD3v3, venetoclax 1000 nM
[33] = SuppFigure 8b, LD3v3, venetoclax 3160 nM
[34] = SuppFigure 8b, LD3v3, venetoclax 10000 nM
[35] = SuppFigure 8c, LD3, venetoclax 1 nM
[36] = SuppFigure 8c, LD3, venetoclax 3.16 nM
[37] = SuppFigure 8c, LD3, venetoclax 10 nM
[38] = SuppFigure 8c, LD3, venetoclax 31.6 nM
[39] = SuppFigure 8c, LD3, venetoclax 100 nM
[40] = SuppFigure 8c, LD3, venetoclax 316 nM
[41] = SuppFigure 8c, LD3, venetoclax 1000 nM
[42] = SuppFigure 8c, LD3, venetoclax 3160 nM
[43] = SuppFigure 8c, LD3, venetoclax 10000 nM
[44] = SuppFigure 8c, LD3v1, venetoclax 1 nM
[45] = SuppFigure 8c, LD3v1, venetoclax 3.16 nM
[46] = SuppFigure 8c, LD3v1, venetoclax 10 nM
[47] = SuppFigure 8c, LD3v1, venetoclax 31.6 nM
[48] = SuppFigure 8c, LD3v1, venetoclax 100 nM
[49] = SuppFigure 8c, LD3v1, venetoclax 316 nM
[50] = SuppFigure 8c, LD3v1, venetoclax 1000 nM
[51] = SuppFigure 8c, LD3v1, venetoclax 3160 nM
[52] = SuppFigure 8c, LD3v1, venetoclax 10000 nM
[53] = SuppFigure 8c, LD3v2, venetoclax 1 nM
[54] = SuppFigure 8c, LD3v2, venetoclax 3.16 nM
[55] = SuppFigure 8c, LD3v2, venetoclax 10 nM
[56] = SuppFigure 8c, LD3v2, venetoclax 31.6 nM
[57] = SuppFigure 8c, LD3v2, venetoclax 100 nM
[58] = SuppFigure 8c, LD3v2, venetoclax 316 nM
[59] = SuppFigure 8c, LD3v2, venetoclax 1000 nM
[60] = SuppFigure 8c, LD3v2, venetoclax 3160 nM
[61] = SuppFigure 8c, LD3v2, venetoclax 10000 nM
[62] = SuppFigure 8c, LD3v3, venetoclax 1 nM
[63] = SuppFigure 8c, LD3v3, venetoclax 3.16 nM
[64] = SuppFigure 8c, LD3v3, venetoclax 10 nM
[65] = SuppFigure 8c, LD3v3, venetoclax 31.6 nM
[66] = SuppFigure 8c, LD3v3, venetoclax 100 nM
[67] = SuppFigure 8c, LD3v3, venetoclax 316 nM
[68] = SuppFigure 8c, LD3v3, venetoclax 1000 nM
[69] = SuppFigure 8c, LD3v3, venetoclax 3160 nM
[70] = SuppFigure 8c, LD3v3, venetoclax 10000 nM

SMILES: CC1(C)CCC(CN2CCN(c3ccc(C(=O)NS(=O)(=O)c4ccc(NCC5CCOCC5)c([N+](=O)[O-])c4)c(Oc4cnc5[nH]ccc5c4)c3)CC2)=C(c2ccc(Cl)cc2)C1 [Venetoclax]
- Normalized data (SEAP) [1]: 4.498
- Raw data (SEAP) [1]: 18.9052
- Normalized data (SEAP) [2]: 14.8552
- Raw data (SEAP) [2]: 62.4429
- Normalized data (SEAP) [3]: 43.1759
- Raw data (SEAP) [3]: 181.487
- Normalized data (SEAP) [4]: 91.7223
- Raw data (SEAP) [4]: 385.549
- Normalized data (SEAP) [5]: 100
- Raw data (SEAP) [5]: 420.344
- Normalized data (SEAP) [6]: 92.3499
- Raw data (SEAP) [6]: 388.188
- Normalized data (SEAP) [7]: 51.2329
- Raw data (SEAP) [7]: 215.355
- Normalized data (SEAP) [8]: 9.345
- Raw data (SEAP) [8]: 17.9682
- Normalized data (SEAP) [9]: 9.034
- Raw data (SEAP) [9]: 17.3705
- Normalized data (SEAP) [10]: 10.4886
- Raw data (SEAP) [10]: 20.1681
- Normalized data (SEAP) [11]: 19.5956
- Raw data (SEAP) [11]: 37.6794
- Normalized data (SEAP) [12]: 44.2027
- Raw data (SEAP) [12]: 84.9952
- Normalized data (SEAP) [13]: 100
- Raw data (SEAP) [13]: 192.285
- Normalized data (SEAP) [14]: 87.7314
- Raw data (SEAP) [14]: 168.695
- Normalized data (SEAP) [15]: 49.2054
- Raw data (SEAP) [15]: 94.6147
- Normalized data (SEAP) [16]: 19.8616
- Raw data (SEAP) [16]: 38.191
- Normalized data (SEAP) [17]: 3.604
- Raw data (SEAP) [17]: 12.0656
- Normalized data (SEAP) [18]: 3.9805
- Raw data (SEAP) [18]: 13.3245
- Normalized data (SEAP) [19]: 4.834
- Raw data (SEAP) [19]: 16.18
- Normalized data (SEAP) [20]: 12.8068
- Raw data (SEAP) [20]: 42.87
- Normalized data (SEAP) [21]: 33.7173
- Raw data (SEAP) [21]: 112.867
- Normalized data (SEAP) [22]: 77.9659
- Raw data (SEAP) [22]: 260.986
- Normalized data (SEAP) [23]: 100
- Raw data (SEAP) [23]: 334.744
- Normalized data (SEAP) [24]: 66.077
- Raw data (SEAP) [24]: 221.189
- Normalized data (SEAP) [25]: 30.9558
- Raw data (SEAP) [25]: 103.623
- Normalized data (SEAP) [26]: 59.1038
- Raw data (SEAP) [26]: 11.2669
- Normalized data (SEAP) [27]: 71.809
- Raw data (SEAP) [27]: 13.6889
- Normalized data (SEAP) [28]: 61.7452
- Raw data (SEAP) [28]: 11.7704
- Normalized data (SEAP) [29]: 69.7498
- Raw data (SEAP) [29]: 13.2963
- Normalized data (SEAP) [30]: 80.5519
- Raw data (SEAP) [30]: 15.3555
- Normalized data (SEAP) [31]: 100
- Raw data (SEAP) [31]: 19.0629
- Normalized data (SEAP) [32]: 89.5017
- Raw data (SEAP) [32]: 17.0616
- Normalized data (SEAP) [33]: 75.6488
- Raw data (SEAP) [33]: 14.4208
- Normalized data (SEAP) [34]: 59.7156
- Raw data (SEAP) [34]: 11.3835
- Normalized data (SEAP) [35]: 3.575
- Raw data (SEAP) [35]: 13.7218
- Normalized data (SEAP) [36]: 3.97
- Raw data (SEAP) [36]: 15.2365
- Normalized data (SEAP) [37]: 6.118
- Raw data (SEAP) [37]: 23.4789
- Normalized data (SEAP) [38]: 19.9083
- Raw data (SEAP) [38]: 76.4036
- Normalized data (SEAP) [39]: 50.1718
- Raw data (SEAP) [39]: 192.548
- Normalized data (SEAP) [40]: 93.753
- Raw data (SEAP) [40]: 359.804
- Normalized data (SEAP) [41]: 100
- Raw data (SEAP) [41]: 383.778
- Normalized data (SEAP) [42]: 77.866
- Raw data (SEAP) [42]: 298.833
- Normalized data (SEAP) [43]: 35.1914
- Raw data (SEAP) [43]: 135.057
- Normalized data (SEAP) [44]: 13.8401
- Raw data (SEAP) [44]: 15.4633
- Normalized data (SEAP) [45]: 14.8573
- Raw data (SEAP) [45]: 16.5999
- Normalized data (SEAP) [46]: 15.6025
- Raw data (SEAP) [46]: 17.4324
- Normalized data (SEAP) [47]: 28.6773
- Raw data (SEAP) [47]: 32.0407
- Normalized data (SEAP) [48]: 48.5828
- Raw data (SEAP) [48]: 54.2809
- Normalized data (SEAP) [49]: 100
- Raw data (SEAP) [49]: 111.729
- Normalized data (SEAP) [50]: 98.9424
- Raw data (SEAP) [50]: 110.547
- Normalized data (SEAP) [51]: 75.2543
- Raw data (SEAP) [51]: 84.0806
- Normalized data (SEAP) [52]: 21.4009
- Raw data (SEAP) [52]: 23.9109
- Normalized data (SEAP) [53]: 4.916
- Raw data (SEAP) [53]: 14.375
- Normalized data (SEAP) [54]: 5.386
- Raw data (SEAP) [54]: 15.7505
- Normalized data (SEAP) [55]: 6.285
- Raw data (SEAP) [55]: 18.3792
- Normalized data (SEAP) [56]: 18.3149
- Raw data (SEAP) [56]: 53.5545
- Normalized data (SEAP) [57]: 44.7805
- Raw data (SEAP) [57]: 130.943
- Normalized data (SEAP) [58]: 92.9232
- Raw data (SEAP) [58]: 271.716
- Normalized data (SEAP) [59]: 100
- Raw data (SEAP) [59]: 292.41
- Normalized data (SEAP) [60]: 75.7485
- Raw data (SEAP) [60]: 221.496
- Normalized data (SEAP) [61]: 31.6477
- Raw data (SEAP) [61]: 92.541
- Normalized data (SEAP) [62]: 39.2835
- Raw data (SEAP) [62]: 15.066
- Normalized data (SEAP) [63]: 40.4811
- Raw data (SEAP) [63]: 15.5253
- Normalized data (SEAP) [64]: 41.5277
- Raw data (SEAP) [64]: 15.9266
- Normalized data (SEAP) [65]: 52.0376
- Raw data (SEAP) [65]: 19.9574
- Normalized data (SEAP) [66]: 75.9664
- Raw data (SEAP) [66]: 29.1345
- Normalized data (SEAP) [67]: 100
- Raw data (SEAP) [67]: 38.3518
- Normalized data (SEAP) [68]: 67.7678
- Raw data (SEAP) [68]: 25.9902
- Normalized data (SEAP) [69]: 51.723
- Raw data (SEAP) [69]: 19.8367
- Normalized data (SEAP) [70]: 31.0619
- Raw data (SEAP) [70]: 11.9128
- SEAP, replicate values (CBPVene-v5-LD3v1, venetoclax 100 nM): 98.3781 and 87.1331 and 45.1145
- SEAP, replicate values (CBPVene-v5-LD3v1, venetoclax 3160 nM): 13.0779
- SEAP, replicate values (CBPVene-v5, venetoclax 100 nM): 341.722 and 335.341
- Raw data Figure 5c, CBPVene-v4-LD3v1 (SEAP reporter raw value, single replicate) (Venetoclax 10000 nM, construct CBPVene-v4-LD3v1, three replicate columns): 307.085 and 269.935 and 317.486
- Raw data Figure 5c, CBPVene-v4 (SEAP reporter raw value, single replicate) (Venetoclax 10000 nM, construct CBPVene-v4, three replicate columns): 10.3692 and 8.227 and 12.3711
